Consider 20 compounds from US8637510B2, “Morpholinothiazoles as alpha 7 positive allosteric modulators” (Janssen Pharmaceutica NV, priority 2009, dated 2014).

The target in one data set is T1, human alpha 7-wt nAChR (Homo sapiens, UniProt P36544).
T1 construct: expressed in transfected cells
In words: Ca2+ flux imaging (FDSS) (Protocol B). It is filed as cell-based. The note with it: for Emax / a7-PAM-G_[33]_Eff_Curve_FI % Efficacy: efficacy of 100 μM choline defined as 100% in the absence of a PAM; for Emax: read-out: a7-PAM-G_[33]_Eff_Curve_FI % Efficacy; for EC50: potentiation of 100 μM choline, compounds 0.01 μM to 30 μM, read-out: a7-PAM-G_[33]_pEC50 pEC50 (converted). The procedure, abridged:
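Fluo-4AM-loaded cells expressing human α7-wt nAChR, in HBSS with 10 mM HEPES, 5 mM CaCl2, 0.1% BSA, received compound (0.01–30 μM), typically 10 min before 100 μM choline, with calcium flux read in real time. Potentiation is relative to choline alone (100%); EC50 from sigmoidal curves.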

The target in data set [1] is T2, human alpha 7-wt nAChR-expressing GH4C1 cells (Homo sapiens, UniProt P36544).
T2 construct: expressed in transfected cells
T2 sequence (P36544 23-502): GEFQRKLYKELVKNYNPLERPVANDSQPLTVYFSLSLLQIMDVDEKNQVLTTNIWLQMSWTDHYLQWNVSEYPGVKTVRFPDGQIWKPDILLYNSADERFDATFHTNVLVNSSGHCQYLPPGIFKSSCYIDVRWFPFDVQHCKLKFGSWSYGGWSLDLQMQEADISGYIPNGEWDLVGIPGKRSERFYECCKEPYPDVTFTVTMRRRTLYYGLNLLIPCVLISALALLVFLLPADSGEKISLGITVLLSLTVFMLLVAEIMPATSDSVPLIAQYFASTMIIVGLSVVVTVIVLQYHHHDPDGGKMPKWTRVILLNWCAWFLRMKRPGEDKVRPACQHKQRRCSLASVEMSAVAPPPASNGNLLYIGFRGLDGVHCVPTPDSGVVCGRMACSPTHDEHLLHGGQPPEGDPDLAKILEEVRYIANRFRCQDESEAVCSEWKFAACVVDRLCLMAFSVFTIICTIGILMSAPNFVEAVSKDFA
Put plainly: Patch-clamp current recording (whole-cell voltage-clamp, PAM type classification). Format: cell-based. On the set-up: key: Type 0 compounds minimally change the effect size of the current elicited by 1 mM choline.; Type 1 compounds enhance the effect size of the current elicited by 1 mM choline but minimally alter the kinetics of the receptor.; Type 2 compounds enhance the effect size of the current elicited by 1 mM choline while reducing the rate and/or the extent of desensitization.; Type 3 compounds enhance the effect size of the current elicited by 1 mM choline. When tested at higher concentrations up to 10 μM they completely inhibit desensitization; Type 4 compounds allow for an initial desensitization of the receptor followed by a re-opening of the receptor during agonist application. Particulars: 1 mM choline. The procedure, abridged:
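Whole-cell voltage clamp of GH4C1 cells stably expressing human wild-type α7 nAChR, with compound co-applied with 1 mM choline via rapid (<100 ms) solution switching; external pH 7.3, CsCl-based internal solution, 1.5-3 MΩ electrodes. PAM type (0-4) assigned from current kinetics when peak potentiation reached ≥200% of control choline response.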
(Patch clamp records ionic current or voltage across a cell membrane.)

SMILES strings stand for the structures.

For orientation: melting point means the temperature, or range, at which the solid turns liquid.

T1 sequence (P36544 23-502): as above

`Cc1cc(-c2sc(N3C[C@@H](C)O[C@@H](C)C3)nc2CNC(=O)c2cc(C)on2)ccn1` [Compound 87, N-[[2-[(2R,6S)-2,6-dimethyl-4-morpholinyl]-5-(2-methyl-4-pyridinyl)-4-thiazolyl]methyl]-5-methyl-3-isoxazolecarboxamide] yielded a melting point of 177 °C. On human alpha 7-wt nAChR, the Emax is 646% and the EC50 was 813 nM. For the same compound, the “PAM_Type PAM type” value in data set [1] was 2.
As for `Cc1cc(-c2sc(N3CCOC(C)C3)nc2CNC(=O)CC2CC2)cc(C)n1` (single isomer, unassigned) [Compound 78, N-[[5-(2,6-dimethyl-4-pyridinyl)-2-[(2S*)-2-methyl-4-morpholinyl]-4-thiazolyl]methyl]-cyclopropaneacetamide], the melting point came to 169 °C. Besides, at human alpha 7-wt nAChR, the “a7-PAM-G_[33]_Eff_Curve_FI % Efficacy” value was determined as 919% and the EC50 was 1170 nM. Also, the “PAM_Type PAM type” value in data set [1] is on record as 2.
Turning to `Cc1cc(-c2sc(N3CC4CCC(C3)O4)nc2CNC(=O)C(C)C)cc(C)n1` [Compound 207, N-[[5-(2,6-dimethyl-4-pyridinyl)-2-(8-oxa-3-azabicyclo[3.2.1]oct-3-yl)-4-thiazolyl]methyl]-2-methyl-propanamide], the melting point was 179 °C. Besides, on human alpha 7-wt nAChR, the EC50 was 3310 nM. Also, in data set [1], the “PAM_Type PAM type” value is reported as 1.
The compound `CCC(=O)NCc1nc(N2C[C@@H](C)O[C@@H](C)C2)sc1-c1cc(C)nc(C)c1` [Compound 39, N-[[2-[(2R,6S)-2,6-dimethyl-4-morpholinyl]-5-(2,6-dimethyl-4-pyridinyl)-4-thiazolyl]methyl]-propanamide] displayed a melting point of 176 °C. Further, at human alpha 7-wt nAChR, the Emax came out at 498% and the EC50 was 871 nM. Also, the “PAM_Type PAM type” value in data set [1] is 2.
The like results for `Cc1cc(-c2sc(N3CCOC(C(F)(F)F)C3)nc2CNC(=O)c2conc2C)cc(C)n1` (stereo not drawn) [Compound 196, N-[[5-(2,6-dimethyl-4-pyridinyl)-2-[2-(trifluoromethyl)-4-morpholinyl]-4-thiazolyl]methyl]-3-methyl-4-isoxazolecarboxamide] were, in that order, 178 °C, 819%, 56.2 nM and 2.
The compound `COc1cc(-c2sc(N3C[C@@H](C)O[C@@H](C)C3)nc2CNC(=O)C2CCC2)cc(C)n1` [Compound 84, N-[[2-[(2R,6S)-2,6-dimethyl-4-morpholinyl]-5-(2-methoxy-6-methyl-4-pyridinyl)-4-thiazolyl]methyl]-cyclobutanecarboxamide] came in with a melting point of 171 °C. In addition, on human alpha 7-wt nAChR, the Emax was determined as 443% and the EC50 is 102 nM. In data set [1], the “PAM_Type PAM type” value is 2.
Compound `Cc1cc(-c2sc(N3CCOC(C(F)(F)F)C3)nc2CNC(=O)CC2CC2)cc(C)n1` (stereo not drawn) [Compound 190, N-[[5-(2,6-dimethyl-4-pyridinyl)-2-[2-(trifluoromethyl)-4-morpholinyl]-4-thiazolyl]methyl]-cyclopropaneacetamide] yielded a melting point of 168 °C. Also, the EC50 on human alpha 7-wt nAChR is 70.8 nM. Also, in data set [1], the “PAM_Type PAM type” value worked out at 2.
Compound `Cc1cc(-c2sc(N3CCOC(C(F)(F)F)C3)nc2CNC(=O)c2cc(C)on2)cc(C)n1` (stereo not drawn) [Compound 195, N-[[5-(2,6-dimethyl-4-pyridinyl)-2-[2-(trifluoromethyl)-4-morpholinyl]-4-thiazolyl]methyl]-5-methyl-3-isoxazolecarboxamide] had a melting point of 170 °C. For the same compound, at human alpha 7-wt nAChR, the EC50 was 186 nM. In addition, the “PAM_Type PAM type” value in data set [1] was 0.
In turn, `COc1cc(-c2sc(N3C[C@@H](C)O[C@@H](C)C3)nc2CNC(=O)CC2CC2)cc(C)n1` [Compound 83, N-[[2-[(2R,6S)-2,6-dimethyl-4-morpholinyl]-5-(2-methoxy-6-methyl-4-pyridinyl)-4-thiazolyl]methyl]-cyclopropaneacetamide] gave a melting point of 171 °C. On human alpha 7-wt nAChR, the Emax amounted to 584% and the EC50 is 145 nM. Moreover, the “PAM_Type PAM type” value in data set [1] turned out to be 2.
Compound `Cc1cc(C(=O)NCc2nc(N3C[C@@H](C)O[C@@H](C)C3)sc2-c2cc(C)nc(C)c2)on1` [Compound 4, N-[[2-[(2R,6S)-2,6-dimethyl-4-morpholinyl]-5-(2,6-dimethyl-4-pyridinyl)-4-thiazolyl]methyl]-3-methyl-5-isoxazolecarboxamide] registered a melting point of 184 °C. Further, on human alpha 7-wt nAChR, the Emax is 927% and the EC50 is 1410 nM. Also, the “PAM_Type PAM type” value in data set [1] is 2.
For the compound `Cc1cc(-c2sc(N3CCOC(C)C3)nc2CNC(=O)C(C)C)cc(C)n1` (single isomer, unassigned) [Compound 71, N-[[5-(2,6-dimethyl-4-pyridinyl)-2-[(2S*)-2-methyl-4-morpholinyl]-4-thiazolyl]methyl]-2-methyl-propanamide], the melting point amounted to 188 °C. Besides, on human alpha 7-wt nAChR, the EC50 was 692 nM. In data set [1], the “PAM_Type PAM type” value worked out at 2.
Regarding `Cc1cc(-c2sc(N3CC4CCC(C3)O4)nc2CNC(=O)CC2CC2)cc(C)n1` [Compound 209, N-[[5-(2,6-dimethyl-4-pyridinyl)-2-(8-oxa-3-azabicyclo[3.2.1]oct-3-y1)-4-thiazolyl]methyl]-cyclopropaneacetamide], the melting point came out at 161 °C. In addition, on human alpha 7-wt nAChR, the Emax worked out at 705% and the EC50 is 3160 nM. The “PAM_Type PAM type” value in data set [1] is listed as 0.
For the compound `Cc1cc(-c2sc(N3CCOC(C(F)(F)F)C3)nc2CNC(=O)C(C)C)cc(C)n1` (stereo not drawn) [Compound 194, N-[[5-(2,6-dimethyl-4-pyridinyl)-2-[2-(trifluoromethyl)-4-morpholinyl]-4-thiazolyl]methyl]-2-methyl-propanamide], the melting point turned out to be 189 °C. At human alpha 7-wt nAChR, the EC50 was 55 nM. The “PAM_Type PAM type” value in data set [1] stood at 3.
`Cc1cc(-c2sc(N3CC4CCC(C3)O4)nc2CNC(=O)c2ccc(F)cc2C)cc(C)n1` [Compound 208, N-[[5-(2,6-dimethyl-4-pyridinyl)-2-(8-oxa-3-azabicyclo[3.2.1]oct-3-y1)-4-thiazolyl]methyl]-4-fluoro-2-methyl-benzamide]: the melting point came out at 194 °C. Besides, on human alpha 7-wt nAChR, the Emax was found to be 898% and the EC50 is 603 nM. In addition, the “PAM_Type PAM type” value in data set [1] was 2.
Compound `C[C@@H]1CN(c2nc(CNC(=O)CC3CC3)c(-c3ccnc(C(F)(F)F)c3)s2)C[C@H](C)O1` [Compound 200, N-[[2-[(2R,6S)-2,6-dimethyl-4-morpholinyl]-5-[2-(trifluoromethyl)-4-pyridinyl]-4-thiazolyl]methyl]-cyclopropaneacetamide] gave a melting point of 198 °C. Further, the EC50 on human alpha 7-wt nAChR is 162 nM. Also, the “PAM_Type PAM type” value in data set [1] worked out at 1.
The compound `Cc1cc(-c2sc(N3CCOC(C)C3)nc2CNC(=O)C(C)C)cc(C)n1` (single isomer, unassigned) [Compound 76, N-[[5-(2,6-dimethyl-4-pyridinyl)-2-[(2R*)-2-methyl-4-morpholinyl]-4-thiazolyl]methyl]-2-methyl-propanamide] registered a melting point of 189 °C. In addition, at human alpha 7-wt nAChR, the Emax is 611% and the EC50 is 550 nM. For the same compound, the “PAM_Type PAM type” value in data set [1] was 2.
Compound `COc1cc(-c2sc(N3C[C@@H](C)O[C@@H](C)C3)nc2CNC(=O)c2cc(C)on2)cc(C)n1` [Compound 82, N-[[2-[(2R,6S)-2,6-dimethyl-4-morpholinyl]-5-(2-methoxy-6-methyl-4-pyridinyl)-4-thiazolyl]methyl]-5-methyl-3-isoxazolecarboxamide] came in with a melting point of 203 °C. On human alpha 7-wt nAChR, the Emax is 459% and the EC50 is 324 nM. Besides, the “PAM_Type PAM type” value in data set [1] is recorded as 1.
Turning to `Cc1cc(-c2sc(N3CCOC(C)C3)nc2CNC(=O)CC2CC2)cc(C)n1` (single isomer, unassigned) [Compound 75, N-[[5-(2,6-dimethyl-4-pyridinyl)-2-[(2R*)-2-methyl-4-morpholinyl]-4-thiazolyl]methyl]-cyclopropaneacetamide], the melting point amounted to 170 °C. For the same compound, on human alpha 7-wt nAChR, the “a7-PAM-G_[33]_Eff_Curve_FI % Efficacy” value was 819% and the EC50 was 1020 nM. Moreover, in data set [1], the “PAM_Type PAM type” value stood at 2.
On to `Cc1cc(-c2sc(N3C[C@@H](C)O[C@@H](C)C3)nc2CNC(=O)c2cc(C)on2)cc(C)n1` [Compound 3, N-[[2-[(2R,6S)-2,6-dimethyl-4-morpholinyl]-5-(2,6-dimethyl-4-pyridinyl)-4-thiazolyl]methyl]-5-methyl-3-isoxazolecarboxamide], for which the melting point came out at 208 °C. Also, on human alpha 7-wt nAChR, the EC50 was 813 nM. Further, the “PAM_Type PAM type” value in data set [1] is given as 1.
With `Cc1cc(-c2sc(N3CCOC(C)(C)C3)nc2CNC(=O)CC2CC2)cc(C)n1` [Compound 156, N-[[2-(2,2-dimethyl-4-morpholinyl)-5-(2,6-dimethyl-4-pyridinyl)-4-thiazolyl]methyl]-cyclopropaneacetamide], the melting point came out at 135 °C. Also, on human alpha 7-wt nAChR, the EC50 was 1260 nM. Also, the “PAM_Type PAM type” value in data set [1] stood at 0.
